From patent US11613780B2, “Materials and methods for identifying gyrase inhibitors” (THE FLORIDA INTERNATIONAL UNIVERSITY BOARD OF TRUSTEES, priority 2016, dated 2023) come the findings set out here.

Test [1] concerns expression of firefly luciferase under the control of the PgyrA (screen for DNA gyrase inhibitors). Put plainly: Firefly luciferase expression from PgyrA divergently coupled to IPTG-induced PT7Al/O4 (luciferase assay). Type of test: cell-based, E. coli. The conditions noted are these: for expression of firefly luciferase (other antibiotics): FIG. 12F, antibiotics that are not gyrase inhibitors; for expression of firefly luciferase of FL #1181: FL #1181, in the presence of IPTG, FIG. 12E. How it is done:
(§1) FIGS. 5A-5D. (FIG. 5A) and (FIG. 5B) Inhibition of the supercoiling-sensitive PgyrA by E. coli […] on the chromosome. E. coli strains FL1181 (MG1655(DE3)ΔlacZ attTn7::PT7Al/O4lacZ-PgyrAluc; squares) and FL1182 (VS111(DE3)ΔlacZ attTn7::PT7Al/O4lacZ-PgyrAluc; circles) were used. The activities of β-galactosidase (Miller's units) and firefly luciferase (RLU) were plotted against the IPTG concentration added to the cell cultures. […] Overnight cell cultures were diluted 100-fold and grown until OD600 reached 0.2. Then 0.5 mM of IPTG and various concentrations of ciprofloxacin or other antibiotics were added to the cell cultures. After additional 30 min incubation, the activities of β-galactosidase and firefly luciferase were measured as described under Materials and Methods. (FIG. 5C) Ciprofloxacin inhibited the expression of β-galactosidase.
Briefly, a 5.1 kb DNA fragment carrying the divergently coupled PgyrA and PT7Al/O4 promoters with the luc and lacZ genes was inserted to the attTn7 site of the E. coli chromosome (84 min of the chromosome) to generate FL1181 and FL1182. In both strains, the IPTG-inducible PT7Al/O4 controls the expression of β-galactosidase. Using similar approach, the following E. coli strains were generated: FL1181, FL1182, FL1198, FL1199, FL1200, FL1202, FL1203, and FL1204.
Luciferase Assay was used to verify the expression of luciferase in various E. coli strains carrying different plasmid DNA templates. Briefly, E. coli cells carrying different plasmids were grown overnight in LB. Antibiotics were added to LB as needed. The overnight culture was then diluted (1:100) in fresh LB in the presence of different concentrations of IPTG, and grown until the OD600 nm reached approximately 0.5. Next, 50 μl of cells were mixed with 10 μl of 1 M K2HPO4 (pH 7.8) and 20 mM EDTA, quickly frozen in liquid nitrogen for 3 min, and equilibrated to room temperature for 30 min to yield about 60 μl of cell lysate. Then, the cell lysate was added with 300 μl freshly prepared lysis mix containing 1×cell culture lysis reagent (CCLR), 1.25 mg/ml lysozyme, and 2.5 mg/ml BSA, and incubated for 10 min at room temperature. Finally, 100 μl of Luciferase Assay Reagent (Promega Corporation, Madison, Wis.) was added to 20 μl of the cell lysate and used for light measurement by using a Promega GloMax 20/20 Single-Tube Luminometer.

Test [2] concerns expression of β-galactosidase (lacZ) under the control of PT7Al/O4. Put plainly: β-galactosidase expression from PT7Al/O4 (Miller's assay). The conditions noted are these: FL1181 and FL1182, 0.5 mM IPTG, 30 min incubation; FIG. 5C. Type of test: cell-based, E. coli. The method, then:
as §1, with “β-galactosidase. […]” for “β-galactosidase.”
The expression level of β-galactosidase was measured by Miller's assay as described by Miller et al. Briefly, 100 mL of LB was inoculated with 1 mL of overnight bacterial cell culture until OD600 reaches about 0.2. […] After cell debris was removed by centrifugation at 13,000 rpm for 1 min, OD420 and OD550 were measured in a Cary 50 spectrophotometer. β-Galactosidase activities (E) were calculated using the following equation: […]

Molecules are shown by their SMILES. “Also recorded” adds a separate entry of the source.

With `CC1(C)S[C@@H]2[C@H](NC(=O)[C@H](N)c3ccccc3)C(=O)N2[C@H]1C(=O)O` [ampicillin], in test [1], the “expression of firefly luciferase (other antibiotics)” value is given as “inhibited; also recorded: inhibition”. For the compound `O=C(O)c1cn(C2CC2)c2cc(N3CCNCC3)c(F)cc2c1=O` [ciprofloxacin], the “expression of firefly luciferase” value in test [1] (E. coli strains FL1181 and FL1182 (divergently coupled PgyrA and PT7Al/O4), in the presence of IPTG (0.5 mM), 30 min incubation, FIG. 5D) was “substantially increased; also recorded: greatly enhanced; also recorded: specifically enhanced”. In addition, the “expression of firefly luciferase of FL #1181” value (“expression … of FL #1181” below) in test [1] is reported as “stimulation”. Besides, in test [2], the “expression of β-galactosidase” value was “inhibited”. Consider `CCN1CCN(c2cc3c(cc2F)c(=O)c(C(=O)O)cn3C2CC2)CC1` [enrofloxacin], for which, in test [1], the “expression … of FL #1181” value is “stimulation”. Turning to `CCn1cc(C(=O)O)c(=O)c2cc(F)c(N3CCNCC3)cc21` [norfloxacin], the “expression … of FL #1181” value in test [1] was “stimulation”. As for `CN[C@@H]1[C@H](O)[C@H](NC)[C@H]2O[C@@]3(O)C(=O)C[C@@H](C)O[C@H]3O[C@@H]2[C@H]1O` [spectinomycin], the “expression of firefly luciferase (other antibiotics)” value in test [1] was “inhibition”.
